Test results published in paper PMC6385020 (Molecules, 2019).

Legend:
[1] = system: G4-DNA structures (F-21-T, F-myc-T, F-21CTA-T, F-CEB25-WT-T); assay: FRET-melting assay (ligand-induced stabilization); type: binding, human; conditions: 1 µM ligand, 0.2 µM DNA, all G4-DNA structures, K+1 or K+10 buffer
Experimental: (§1) For the G4-FID assay, the oligonucleotides were dissolved in K^+100 buffer (10 mM lithium cacodylate buffer pH 7.3, 100 mM KCl, 1% DMSO). Oligonucleotide concentrations were determined on the basis of their absorbance at 260 nm. For the fluorimetric titration, the oligonucleotides were dissolved in K^+100 buffer without DMSO. For the FRET-melting assay, the oligonucleotides were dissolved in K^+1 buffer (10 mM lithium cacodylate buffer pH 7.3, 1 mM KCl, 99 mM LiCl) except for F-21-T. F-21-T was dissolved in K^+10 buffer (10 mM lithium cacodylate buffer pH 7.3, 10 mM KCl, 90 mM LiCl).
(§2) Prior to use, all oligonucleotides were pretreated by heating at 95 °C for 5 min, then rapidly cooled to 4 °C to favor the intramolecular folding by kinetic trapping. Duplex-DNA ds26 was prepared by heating the self-complementary strand at 90 °C for 5 min in K^+1 buffer followed by a slow cooling over 6 h.
The stabilization of the compounds with a quadruplex-structure was monitored via FRET-melting assay performed in 96-well plates on a real-time PCR apparatus 7900HT Fast Real-Time PCR System as follows: 5 min at 25 °C and then an increase of 0.5 °C every minute until 95 °C. Each experimental condition was tested and replicated in a volume of 25 μL for each sample. The FRET-melting assay was performed with three dual fluorescently labeled DNA oligonucleotide sequences oligonucleotides. The donor fluorophore was 6-carboxyfluorescein, FAM, and the acceptor fluorophore was 6-carboxytetramethylrhodamine, TAMRA. The 96-well plates (Applied Biosystems) were prepared by aliquoting the annealed DNA (0.2 μM in K^+1 or K^+10 buffer) into each well, followed by 1 μL of the ligand ([…] (5 eq) in DMSO). For competition experiments, duplex competitors were added to 200 nM quadruplex sequences at final concentrations of 3.0 μM (15 eq) and 10.0 μM (50 eq), with a total reaction volume of 25 μL, with the labeled oligonucleotide (0.2 μM) and the ligand (1 μM). Measurements were made with excitation at 492 nm and detection at 516 nm. The change in the melting temperature at 1.0 μm compound concentration, ΔTm (1.0 μM), was calculated from at least two experiments by subtraction of the blank from the averaged melting temperature of each compound (1.0 μM). The final analysis of the data was carried out using Origin Pro 8.6 data analysis.

[2] = system: 22AG human telomeric sequence G4; assay: TO G4-FID assay; type: binding; conditions: TO 2 eq, K+100 buffer
Experimental: as §1, §2
(§3) Each G4-FID assay was performed in a 96-well Non-Binding Surface black with black bottom polystyrene microplates (Corning). Every ligand was tested on a line of the microplate, in duplicate. The microplate was filled with (a) K^+100 solution (qs for 200 μL), (b) 10 μL of a solution of pre-folded oligonucleotides (5 μM) and fluorescent probe (TO/TO-PRO-3 (10 μM—2 eq) or PhenDV (7,5 µM—1.5 eq)), and (c) an extemporaneously prepared 5 μM ligand solution in K^+100 buffer (0 to 100 μL) along the line of the microplate, i.e., from column A to column H: 0, 0.125, 0.25, 0.375, 0.5, 0.625, 0.75, 1.0, 1.25, 1.5, 2.0, and 2.5 μM. After 5 min of orbital shaking at 500 rpm, fluorescence is measured using the following experimental parameters: positioning delay of 0.5 s, 20 flashes per well, emission/excitation filters for TO at 485/520, TO-PRO-3 at 620/670, and PhenDV at 355/520 gain adjusted at 80% of the fluorescence from the most fluorescent well (i.e., a well from column A for TO and a well from column H).
(§4) The percentage of TO displacement is calculated from the fluorescence intensity (F), using (1) % TO displacement=1−F/F0 where F0 is the fluorescence from the fluorescent probe bound to DNA without added ligand.
(§5) The PhenDV displacement is calculated from the fluorescence intensity F; F(ligand+probe), which refers to the fluorescence of the probe in presence of the ligand (without G4); and F0, which is the fluorescence without added ligand. The term F(ligand+probe) is necessary as the ligand can quench the fluorescence of the probe. The percentage of displacement is then plotted as a function of the concentration of the added ligand. The DNA affinity was evaluated by the concentration of ligand required to decrease the fluorescence of the probe by 50%, was noted DC50, and was determined after non-linear fitting of the displacement curve.

[3] = system: CEB25-WT minisatellite sequence G4; assay: TO G4-FID assay; type: binding; conditions: TO 2 eq, K+100 buffer
Experimental: as §1, §2, §3, §4, §5

[4] = system: c-myc G4; assay: TO G4-FID assay; type: binding; conditions: TO 2 eq, K+100 buffer
Experimental: as §1, §2, §3, §4, §5

[5] = system: A2780 ovarian cancer cell line; assay: Cell growth (proliferation), 96 h treatment; type: cell-based, human; conditions: A2780, 96 h treatment
Experimental: (§6) The ovarian carcinoma cell lines and human normal lung cells were purchased from ATCC and were grown in complete RPMI medium (ovarian) and DMEM (human lung cells) supplemented with 10% fetal calf serum, in the presence of penicillin, streptomycin. The resistance of A2780cis cells to cisplatin was maintained by monthly treatment with 1 µM cisplatin for 4 days. Concentrated stock solutions of complexes were conserved at −20 °C (DMSO/Water) and freshly diluted in water just before the experiments. Cells were treated with various concentrations of platinum complexes at 37 °C under humidity and 5% CO2 conditions for 96 h. Cellular growth was quantified using the particle counter MOXI (VWR).

[6] = system: A2780cis cisplatin-resistant ovarian cancer cell line; assay: Cell growth (proliferation), 96 h treatment; type: cell-based, human; conditions: 96 h treatment; for IC50: A2780cis
Experimental: as §6

[7] = system: CCD19Lu normal lung cell line; assay: Cell growth (proliferation), 96 h treatment; type: cell-based, human
Experimental: as §6

[8] = system: 21CTA (DNA, G4) AGGGCTAGGGCTAGGGCTAGGG; assay: G4-FID, thiazole orange displacement; conditions: 100 mM KCl; 10 mM lithium cacodylate pH 7.3, 1% DMSO; thiazole orange displaced; 1 µM compound, 0.25 µM DNA
[9] = system: CEB25-WT (DNA, G4) AAGGGTGGGTGTAAGTGTGGGTGGGT; assay: G4-FID, thiazole orange displacement; conditions: 100 mM KCl; 10 mM lithium cacodylate pH 7.3, 1% DMSO; thiazole orange displaced; 1 µM compound, 0.25 µM DNA

Compound	∆Tm (ligand-induced stabilization, FRET-melting) [1] [°C]	% of TO displacement at 1 µM of ligand [2] [%]	% of TO displacement at 1 µM of ligand [3] [%]	% of TO displacement at 1 µM of ligand [4] [%]	IC50 [5] [nM]	Resistance Factor (IC50ratio A2780cis/A2780) [6]	IC50 [6] [nM]	IC50 [7] [nM]	% TO displacement [8] [%]	% TO displacement [9] [%]
Cc1ccc(-c2cc(-c3ccccn3)nc(-c3ccccn3)c2)cc1.[Cl-].[Cl][Pt+] [Pt-ttpy]	> 10	80	66	64	2500	1.0	2500	1750	> 80	> 80
[Cl-].[Cl][Pt+].c1ccc(-c2cccc(-c3ccccn3)n2)nc1 [Pt-tpy]	< 10	21	14	41	3000	1.6	5000	3000	–	–
CN(C)CCCNCc1ccc(-c2cc(-c3ccccn3)nc(-c3ccccn3)c2)cc1.[Cl-].[Cl][Pt+] [Pt-ctpy]	> 10	88	82	76	4600	1.1	5000	5200	> 80	> 80
CN(C)c1ccc(/C=C/c2cc(-c3ccccn3)nc(-c3ccccn3)n2)cc1.[Cl-].[Cl][Pt+] [Pt-vpym, Chloro-(E)-4-(2-(2,6-di(pyridin-2-yl)pyrimidin-4-yl)vinyl)-N,N-dimethylaniline-platinum(II) Chloride]	< 10	–	–	–	700	0.6	400	700	–	–
[Cl-].[Cl][Pt+].c1ccc(-c2cc(-c3ccc(OCCN4CCCC4)cc3)nc(-c3ccccn3)n2)nc1 [Pt-cpym, Chloro-(2,4-di(pyridin-2-yl)-6-(4-(2-(pyrrolidin-1-yl)ethoxy)phenyl)pyrimidine)-platinum(II) Chloride]	< 10	67	43	33	3800	1.3	5000	1800	< 60	< 60
